These results are taken from patent US20240360126A1, “PYRAZOLO[3,4-B]PYRIDINE COMPOUNDS FOR THE TREATMENT OF AUTOIMMUNE DISEASE” (Hoffmann-La Roche Inc., priority 2021, published 2024).

Data set [1] in a line: Human microsome stability assay. In kind it is in vitro ADME. The following applies: 1 μM test compound, 0.5 mg/mL liver microsomal protein, 37° C. For orientation: Microsomes from liver hold many membrane-bound enzymes, among them those of drug oxidation.
For a further data set, the target named is T1, human TLR8 (Homo sapiens, UniProt Q9NR97).
T1 construct: host or cells: HEK293 (HEK-Blue hTLR8)
T1 sequence (Q9NR97 27-1041): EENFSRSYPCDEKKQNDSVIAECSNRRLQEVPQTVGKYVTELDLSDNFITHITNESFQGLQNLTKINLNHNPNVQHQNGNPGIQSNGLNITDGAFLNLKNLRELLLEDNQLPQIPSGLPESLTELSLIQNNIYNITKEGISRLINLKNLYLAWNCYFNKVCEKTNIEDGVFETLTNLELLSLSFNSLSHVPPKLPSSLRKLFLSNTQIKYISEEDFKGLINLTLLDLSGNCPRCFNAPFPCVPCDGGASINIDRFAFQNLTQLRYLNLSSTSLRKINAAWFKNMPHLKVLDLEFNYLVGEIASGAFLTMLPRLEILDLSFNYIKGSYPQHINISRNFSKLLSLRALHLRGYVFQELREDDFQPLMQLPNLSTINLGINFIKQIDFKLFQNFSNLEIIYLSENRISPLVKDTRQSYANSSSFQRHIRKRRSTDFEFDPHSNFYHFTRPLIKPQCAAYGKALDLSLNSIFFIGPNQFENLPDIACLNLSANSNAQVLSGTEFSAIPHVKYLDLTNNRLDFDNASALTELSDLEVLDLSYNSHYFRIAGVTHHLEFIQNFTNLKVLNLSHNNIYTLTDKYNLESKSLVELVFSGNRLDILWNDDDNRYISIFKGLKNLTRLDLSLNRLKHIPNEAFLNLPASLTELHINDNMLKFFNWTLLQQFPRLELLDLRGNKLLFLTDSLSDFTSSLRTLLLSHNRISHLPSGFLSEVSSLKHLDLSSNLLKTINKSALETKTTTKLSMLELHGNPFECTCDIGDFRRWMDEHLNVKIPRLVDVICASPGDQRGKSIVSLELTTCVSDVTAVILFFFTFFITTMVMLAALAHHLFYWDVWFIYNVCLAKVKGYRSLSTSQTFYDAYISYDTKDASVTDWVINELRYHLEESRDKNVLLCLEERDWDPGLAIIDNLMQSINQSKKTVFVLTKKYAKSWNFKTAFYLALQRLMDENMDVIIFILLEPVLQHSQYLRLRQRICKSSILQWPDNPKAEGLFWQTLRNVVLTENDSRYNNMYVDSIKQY
Nature of the data set: HEK293-Blue-hTLR-8 cells assay. In kind it is cell-based. The following applies: HEK293-Blue-hTLR8 cells, R848 stimulation, 20 hrs; read-out: HEK/hTLR8 IC50. The text has this: A stable HEK293-Blue-hTLR-8 cell line was purchased from InvivoGen (Cat. #: hkb-htlr8, San Diego, California, USA). These cells were originally designed for studying the stimulation of human TLR8 by monitoring the activation of NF-κB. A SEAP (secreted embryonic alkaline phosphatase) reporter gene was placed under the control of the IFN-β minimal promoter fused to five NF-κB and AP-1-binding sites. The SEAP was induced by activating NF-κB and AP-1 via stimulating HEK-Blue hTLR8 cells with TLR8 ligands. Therefore the reporter expression was declined by TLR8 antagonist under the stimulation of a ligand, such as R848, for incubation of 20 hrs. The cell culture supernatant SEAP reporter activity was determined using QUANTT-BlueTv™ kit (Cat. #: rep-qbl, Invivogen, San Diego, Ca, USA) at a wavelength of 640 nm, a detection medium that turns purple or blue in the presence of alkaline phosphatase.
HEK293-Blue-hTLR8 cells were incubated at a density of 250,000˜450,000 cells/mL in a volume of 170 μL in a 96-well plate in Dulbecco's Modified Eagle's medium (DMEM) containing 4.5 g/L glucose, 50 U/mi penicillin, […] streptomycin, […], 2 mM L-glutamine, 10% (v/v) heat-inactivated fetal bovine serum with addition of 20 μL test compound in a serial dilution in the presence of final DMSO at 1% and 10 μL of 60 μM R848 in above DMEM, perform incubation under 37° C. in a CO2 incubator for 20 hrs. Then 20 μL of the supernatant from each well was incubated with 180 μL Quanti-blue substrate solution at 37° C. for 2 hrs and the absorbance was read at 620-655 nm using a spectrophotometer. The signaling pathway that TLR8 activation leads to downstream NF-κB activation has been widely accepted, and therefore similar reporter assay was modified for evaluating TLR8 antagonist.

For the compound `Cc1cc(N2CC[C@H](c3ccc(N4CC(C)(N)C4)cn3)[C@@H](C)C2)c2cnn(C)c2n1` [Example 43, 1-[6-[(3R,4S)-1-(1,6-dimethylpyrazolo[3,4-b]pyridin-4-yl)-3-methyl-4-piperidyl]-3-pyridyl]-3-methyl-azetidin-3-amine], the “Clearance of Human microsome” value in data set [1] came out at 6.5 mL/min/kg. Further, the IC50 at human TLR8 turned out to be 6 nM.
